The source of these data is PubChem BioAssay AID248 (DTP/NCI, 2004).

The subject of the test is L1210 leukemia ip in BDF1 mice, survival T/C. As to the kind of experiment: NCI In Vivo Anticancer Drug Screen. Data for tumor model L1210 Leukemia (intraperitoneal) in B6D2F1 (BDF1) mice. To be noted: endpoint: mean survival time, higher = longer survival. In a few lines: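 Ratio derived from survival: compound-dosed mice over vehicle-dosed mice, all bearing a transplantable tumor.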

Setting [1] is: dose: 100.0 mg/kg/injection, schedule: Q01DX001 (ip), vehicle: saline.
[2] abbreviates: dose: 25.0 mg/kg/injection, schedule: Q01DX009 (ip), vehicle: Klucel (hydroxypropylcellulose) (HPC).
The mark [3] stands for this setting: dose: 100.0 mg/kg/injection, schedule: Q04DX003 (ip), vehicle: Klucel (hydroxypropylcellulose) (HPC).
[4] abbreviates: dose: 200.0 mg/kg/injection, schedule: Q04DX003 (ip), vehicle: Klucel (hydroxypropylcellulose) (HPC).

Where “and” joins values, the source holds several entries; their conditions need not be identical. Equal values may be shown once. Toxic doses and inconclusive results are not listed.

For `CC[n+]1cc(-c2ccc(NC(=O)/C=C\c3ccc(C(=O)Nc4ccc(-c5c[n+](CC)c(N)nc5N)cc4)cc3)cc2)c(N)nc1N`, the T/C by setting is: (dose: 2.7 mg/kg/injection, schedule: Q01DX015 (ip), vehicle: saline) 156 % of control; (dose: 6.2 mg/kg/injection, schedule: Q01DX015 (ip), vehicle: saline) 153 % of control; (dose: 9.3 mg/kg/injection, schedule: Q01DX015 (ip), vehicle: saline) 152 % of control; (dose: 14.0 mg/kg/injection, schedule: Q01DX015 (ip), vehicle: saline) 201 % of control; (dose: 22.0 mg/kg/injection, schedule: Q01DX015 (ip), vehicle: saline) 207 % of control; (dose: 45.0 mg/kg/injection, schedule: Q01DX001 (ip), vehicle: saline) 101 % of control. The T/C is 188 % of control (dose: 70.0 mg/kg/injection, schedule: Q01DX001 (ip), vehicle: saline); 225 % of control and 248 % of control under setting [1]; 107 % of control (dose: 150.0 mg/kg/injection, schedule: Q01DX001 (ip), vehicle: saline); 105 % of control (dose: 200.0 mg/kg/injection, schedule: Q01DX001 (ip), vehicle: saline); 121 % of control (dose: 155.0 micrograms/kg/injection, schedule: Q01DX009 (ip), vehicle: saline).

As for `O=C(O)c1ccccc1Br.[Ni]`, the T/C (dose: 3.0 mg/kg/injection, schedule: Q01DX009 (ip), vehicle: Klucel (hydroxypropylcellulose) (HPC)) is 91 % of control; the T/C (dose: 6.0 mg/kg/injection, schedule: Q01DX009 (ip), vehicle: Klucel (hydroxypropylcellulose) (HPC)) was 94 % of control; the T/C (dose: 12.0 mg/kg/injection, schedule: Q01DX009 (ip), vehicle: Klucel (hydroxypropylcellulose) (HPC)) was 94 % of control; the T/C (dose: 12.5 mg/kg/injection, schedule: Q01DX001 (ip), vehicle: Klucel (hydroxypropylcellulose) (HPC)) is 97 % of control; the T/C (dose: 25.0 mg/kg/injection, schedule: Q01DX001 (ip), vehicle: Klucel (hydroxypropylcellulose) (HPC)) was 93 % of control; the T/C under setting [2] was 88 % of control. The T/C (dose: 50.0 mg/kg/injection, schedule: Q01DX001 (ip), vehicle: Klucel (hydroxypropylcellulose) (HPC)) was 103 % of control.

Consider `Cc1ccc(S(=O)(=O)Nc2ccccc2N=Cc2ccc([N+](=O)[O-])cc2[N+](=O)[O-])cc1`, for which the T/C is 97 % of control (dose: 75.0 mg/kg/injection, schedule: Q01DX001 (ip), vehicle: carboxymethylcellulose (CMC)); 104 % of control (dose: 150.0 mg/kg/injection, schedule: Q01DX001 (ip), vehicle: carboxymethylcellulose (CMC)); 92 % of control (dose: 300.0 mg/kg/injection, schedule: Q01DX001 (ip), vehicle: carboxymethylcellulose (CMC)).

With `C=CCc1c(C)ccc(C)c1OC`, the T/C reads like this: (dose: 100.0 mg/kg/injection, schedule: Q01DX009 (ip), vehicle: Klucel (hydroxypropylcellulose) (HPC)) 97 % of control; under setting [3], 107 % of control; (dose: 200.0 mg/kg/injection, schedule: Q01DX009 (ip), vehicle: Klucel (hydroxypropylcellulose) (HPC)) 95 % of control; under setting [4], 102 % of control; (dose: 400.0 mg/kg/injection, schedule: Q01DX009 (ip), vehicle: Klucel (hydroxypropylcellulose) (HPC)) 97 % of control; (dose: 400.0 mg/kg/injection, schedule: Q04DX003 (ip), vehicle: Klucel (hydroxypropylcellulose) (HPC)) 102 % of control.

`Cc1ccc(S(=O)(=O)OC2CC3c4ccccc4C2c2cccc[n+]23)cc1` (stereo unspecified): the T/C (dose: 12.5 mg/kg/injection, schedule: Q01DX001 (ip), vehicle: saline) was 103 % of control; the T/C (dose: 25.0 mg/kg/injection, schedule: Q01DX001 (ip), vehicle: saline) was 115 % of control; the T/C (dose: 25.0 mg/kg/injection, schedule: Q04DX003 (ip), vehicle: saline) is 99 % of control; the T/C (dose: 50.0 mg/kg/injection, schedule: Q01DX001 (ip), vehicle: saline) is 110 % of control; the T/C (dose: 50.0 mg/kg/injection, schedule: Q04DX003 (ip), vehicle: saline) was 94 % of control; the T/C under setting [1] was 105 % of control.

With `CC1C2C=CC1C(c1c3ccc(=O)c(O)c-3oc3c(O)c(O)ccc13)C2C(=O)O` (stereo unspecified), the T/C was 105 % of control (dose: 100.0 mg/kg/injection, schedule: Q04DX003 (ip), vehicle: saline); 103 % of control (dose: 200.0 mg/kg/injection, schedule: Q04DX003 (ip), vehicle: saline); 100 % of control (dose: 400.0 mg/kg/injection, schedule: Q04DX003 (ip), vehicle: saline).

As for `COC(=O)CC1CC(C=O)C1` (stereo unspecified), the T/C reads like this: (dose: 100.0 mg/kg/injection, schedule: Q04DX002 (ip), vehicle: saline) 105 % of control; (dose: 200.0 mg/kg/injection, schedule: Q04DX002 (ip), vehicle: saline) 102 % of control; (dose: 400.0 mg/kg/injection, schedule: Q04DX002 (ip), vehicle: saline) 105 % of control.

`O=C1OC(OC(=O)c2ccccc2)C(Br)=C1Br` (stereo unspecified): the T/C is 98 % of control under setting [3] and 104 % of control under setting [4].

As to `CC1=Nc2ccccc2NC(C)C1C` (stereo unspecified), the T/C was 100 % of control (dose: 12.5 mg/kg/injection, schedule: Q01DX009 (ip), vehicle: Klucel (hydroxypropylcellulose) (HPC)); 96 % of control under setting [2]; 108 % of control (dose: 50.0 mg/kg/injection, schedule: Q01DX009 (ip), vehicle: Klucel (hydroxypropylcellulose) (HPC)); 91 % of control (dose: 100.0 mg/kg/injection, schedule: Q01DX009 (ip), vehicle: saline).

Turning to `NC(C(=O)O)c1ccccc1C(=O)O` (stereo unspecified), the T/C is, setting by setting: (dose: 100.0 mg/kg/injection, schedule: Q04DX003 (ip), vehicle: saline with Tween-80) 96 % of control; (dose: 200.0 mg/kg/injection, schedule: Q04DX003 (ip), vehicle: saline with Tween-80) 103 % of control; (dose: 400.0 mg/kg/injection, schedule: Q04DX003 (ip), vehicle: saline with Tween-80) 103 % of control.

With `CC1N2CC12c1ccccc1` (stereo unspecified), the T/C reads like this: (dose: 10.0 mg/kg/injection, schedule: Q01DX001 (ip), vehicle: saline) 103 % of control; (dose: 20.0 mg/kg/injection, schedule: Q01DX001 (ip), vehicle: saline) 108 % of control; (dose: 40.0 mg/kg/injection, schedule: Q01DX001 (ip), vehicle: saline) 103 % of control.

`CCCCCC(N)C(=O)O` (stereo unspecified): the T/C runs as follows: (dose: 12.5 mg/kg/injection, schedule: Q04DX002 (ip), vehicle: saline) 104 % of control; (dose: 25.0 mg/kg/injection, schedule: Q04DX002 (ip), vehicle: saline) 100 % of control; (dose: 50.0 mg/kg/injection, schedule: Q04DX002 (ip), vehicle: saline) 107 % of control.

Take `CCC(C(=O)O)(c1ccccc1)c1ccccc1`: the T/C runs as follows: (dose: 100.0 mg/kg/injection, schedule: Q04DX002 (ip), vehicle: gum acacia) 93 % of control; (dose: 200.0 mg/kg/injection, schedule: Q04DX002 (ip), vehicle: gum acacia) 111 % of control; (dose: 400.0 mg/kg/injection, schedule: Q04DX002 (ip), vehicle: gum acacia) 86 % of control.

`O=NN(CCCl)C(=O)Nc1ccc(Cn2cnc3c(=O)[nH]cnc32)cc1`: the T/C runs as follows: (dose: 5.0 mg/kg/injection, schedule: Q01DX009 (ip), vehicle: other) 150 % of control; (dose: 7.0 mg/kg/injection, schedule: Q01DX009 (ip), vehicle: other) 155 % of control; (dose: 14.0 mg/kg/injection, schedule: Q01DX009 (ip), vehicle: other) 162 % of control; (dose: 18.0 mg/kg/injection, schedule: Q01DX001 (ip), vehicle: other) 161 % of control; (dose: 28.0 mg/kg/injection, schedule: Q01DX009 (ip), vehicle: other) 88 % of control; (dose: 31.0 mg/kg/injection, schedule: Q01DX001 (ip), vehicle: other) 155 % of control. Further, the T/C was 185 % of control (dose: 36.0 mg/kg/injection, schedule: Q01DX001 (ip), vehicle: other); 196 % of control (dose: 45.0 mg/kg/injection, schedule: Q01DX001 (ip), vehicle: other); 169 % of control (dose: 46.0 mg/kg/injection, schedule: Q01DX001 (ip), vehicle: other); 169 % of control (dose: 62.0 mg/kg/injection, schedule: Q01DX001 (ip), vehicle: other); 164 % of control (dose: 63.0 mg/kg/injection, schedule: Q01DX001 (ip), vehicle: other); 101 % of control (dose: 125.0 mg/kg/injection, schedule: Q01DX001 (ip), vehicle: other).

On to `CC(=O)Nc1nnc(NC(C)=O)s1`, for which the T/C is 102 % of control (dose: 9.38 mg/kg/injection, schedule: Q01DX001 (ip), vehicle: other) and 107 % of control (dose: 18.75 mg/kg/injection, schedule: Q01DX001 (ip), vehicle: other).
